# Data taken from patent publication US20240246942A1, “KINASE INHIBITORS FOR THE TREATMENT OF NEURODEGENERATIVE DISEASES” (priority 2020, published 2024).
# How the values were obtained:
# Test in all cases: biochemical
# [1] = molecular target: T1, panel of 374 wild-type kinases (Homo sapiens, UniProt Q06418); settings: read-out: % Enzyme Activity (relative to DMSO controls), kinase TYRO3/SKY
# T1 construct: purchased Reaction Biology Corporation
# T1 sequence (Q06418 41-890): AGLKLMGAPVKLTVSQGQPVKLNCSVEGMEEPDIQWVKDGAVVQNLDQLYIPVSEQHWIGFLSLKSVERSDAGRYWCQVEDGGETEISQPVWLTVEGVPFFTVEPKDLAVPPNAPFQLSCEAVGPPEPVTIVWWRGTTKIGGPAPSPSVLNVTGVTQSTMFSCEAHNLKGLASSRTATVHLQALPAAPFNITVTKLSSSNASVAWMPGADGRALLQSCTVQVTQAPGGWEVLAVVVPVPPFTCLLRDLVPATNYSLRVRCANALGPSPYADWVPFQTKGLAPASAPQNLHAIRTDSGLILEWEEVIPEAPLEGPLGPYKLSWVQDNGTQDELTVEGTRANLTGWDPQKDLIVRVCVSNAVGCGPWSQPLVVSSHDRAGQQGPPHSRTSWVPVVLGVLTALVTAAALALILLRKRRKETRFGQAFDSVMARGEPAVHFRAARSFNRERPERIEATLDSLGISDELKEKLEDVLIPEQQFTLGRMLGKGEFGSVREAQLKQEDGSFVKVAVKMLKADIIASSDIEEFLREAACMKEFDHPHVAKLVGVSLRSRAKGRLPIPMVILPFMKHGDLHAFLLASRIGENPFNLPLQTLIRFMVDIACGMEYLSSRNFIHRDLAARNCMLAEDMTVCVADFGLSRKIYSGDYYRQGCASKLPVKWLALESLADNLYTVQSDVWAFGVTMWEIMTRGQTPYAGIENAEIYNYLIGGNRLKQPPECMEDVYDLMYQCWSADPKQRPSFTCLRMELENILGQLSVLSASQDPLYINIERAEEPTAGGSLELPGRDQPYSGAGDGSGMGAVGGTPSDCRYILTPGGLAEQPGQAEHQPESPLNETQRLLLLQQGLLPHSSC
# [2] = molecular target: T2, panel of 374 wild-type kinases (Homo sapiens, UniProt P51817); settings: read-out: % Enzyme Activity (relative to DMSO controls), kinase PRKX
# T2 construct: purchased Reaction Biology Corporation
# T2 sequence (P51817 1-358): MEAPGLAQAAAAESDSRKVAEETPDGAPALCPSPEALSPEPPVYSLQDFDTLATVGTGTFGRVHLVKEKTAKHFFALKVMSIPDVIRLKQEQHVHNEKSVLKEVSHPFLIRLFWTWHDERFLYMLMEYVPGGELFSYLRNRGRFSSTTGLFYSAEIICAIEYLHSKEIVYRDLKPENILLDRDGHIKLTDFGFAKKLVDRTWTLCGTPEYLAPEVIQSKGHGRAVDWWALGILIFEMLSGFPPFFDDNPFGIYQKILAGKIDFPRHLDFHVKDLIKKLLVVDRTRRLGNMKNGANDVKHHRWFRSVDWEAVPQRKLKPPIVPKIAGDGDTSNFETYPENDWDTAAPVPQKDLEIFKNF
# [3] = molecular target: T3, panel of 374 wild-type kinases (Homo sapiens, UniProt Q8N4C8); settings: read-out: % Enzyme Activity (relative to DMSO controls), MINK/MINK1
# T3 construct: purchased Reaction Biology Corporation
# [4] = molecular target: T4, panel of 374 wild-type kinases (Homo sapiens, UniProt O14965); settings: read-out: % Enzyme Activity (relative to DMSO controls), Aurora A
# T4 construct: purchased Reaction Biology Corporation
# T4 sequence (O14965 1-403): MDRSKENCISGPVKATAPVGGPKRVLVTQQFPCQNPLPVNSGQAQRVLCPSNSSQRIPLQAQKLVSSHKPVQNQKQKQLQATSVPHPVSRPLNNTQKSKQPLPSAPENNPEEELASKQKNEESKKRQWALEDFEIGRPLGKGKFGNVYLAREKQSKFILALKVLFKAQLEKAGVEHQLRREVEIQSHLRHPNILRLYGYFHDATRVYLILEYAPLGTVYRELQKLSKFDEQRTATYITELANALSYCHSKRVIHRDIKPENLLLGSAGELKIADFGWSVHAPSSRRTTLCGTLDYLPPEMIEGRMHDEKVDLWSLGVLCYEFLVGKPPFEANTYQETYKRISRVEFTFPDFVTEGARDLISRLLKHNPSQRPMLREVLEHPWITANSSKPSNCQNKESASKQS
# [5] = molecular target: T5, panel of 374 wild-type kinases (Homo sapiens, UniProt P15735); settings: read-out: % Enzyme Activity (relative to DMSO controls), kinase PHKg2
# T5 construct: purchased Reaction Biology Corporation
# T5 sequence (P15735 1-406): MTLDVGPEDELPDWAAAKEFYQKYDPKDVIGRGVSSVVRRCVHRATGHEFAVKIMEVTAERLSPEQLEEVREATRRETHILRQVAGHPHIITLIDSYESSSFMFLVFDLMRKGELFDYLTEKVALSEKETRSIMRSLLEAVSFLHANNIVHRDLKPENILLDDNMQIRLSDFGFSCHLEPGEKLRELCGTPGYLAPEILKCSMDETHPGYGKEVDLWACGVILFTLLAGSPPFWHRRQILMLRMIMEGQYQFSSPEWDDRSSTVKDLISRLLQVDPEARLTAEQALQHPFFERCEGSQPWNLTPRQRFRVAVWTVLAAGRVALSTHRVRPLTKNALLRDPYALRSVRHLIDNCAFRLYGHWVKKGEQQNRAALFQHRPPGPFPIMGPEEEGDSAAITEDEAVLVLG
# [6] = molecular target: T6, panel of 374 wild-type kinases (Homo sapiens, UniProt P23443); settings: read-out: % Enzyme Activity (relative to DMSO controls), kinase p70S6K/RPS6KB1
# T6 construct: purchased Reaction Biology Corporation
# [7] = molecular target: T7, panel of 374 wild-type kinases (Homo sapiens, UniProt Q05655); settings: read-out: % Enzyme Activity (relative to DMSO controls), kinase PKCd
# T7 construct: purchased Reaction Biology Corporation
# T7 sequence (Q05655 whole entry): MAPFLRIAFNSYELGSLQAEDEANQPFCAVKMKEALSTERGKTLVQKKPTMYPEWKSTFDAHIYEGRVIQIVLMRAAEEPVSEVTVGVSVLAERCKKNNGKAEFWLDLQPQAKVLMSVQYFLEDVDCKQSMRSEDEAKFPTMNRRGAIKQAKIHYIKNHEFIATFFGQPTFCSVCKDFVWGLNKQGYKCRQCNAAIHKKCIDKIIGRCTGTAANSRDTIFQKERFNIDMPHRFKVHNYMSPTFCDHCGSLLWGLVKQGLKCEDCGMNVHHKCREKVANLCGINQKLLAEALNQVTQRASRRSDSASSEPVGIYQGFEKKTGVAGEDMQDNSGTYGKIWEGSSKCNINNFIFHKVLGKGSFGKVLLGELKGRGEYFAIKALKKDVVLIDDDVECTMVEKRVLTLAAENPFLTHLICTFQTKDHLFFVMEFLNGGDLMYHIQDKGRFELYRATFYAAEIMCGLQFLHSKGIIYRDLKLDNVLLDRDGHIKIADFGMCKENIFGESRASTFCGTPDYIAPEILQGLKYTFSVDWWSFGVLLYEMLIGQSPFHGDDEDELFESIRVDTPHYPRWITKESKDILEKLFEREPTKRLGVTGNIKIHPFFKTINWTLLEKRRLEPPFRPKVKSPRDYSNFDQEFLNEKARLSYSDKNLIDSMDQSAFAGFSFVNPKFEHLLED
# T6 sequence (P23443 whole entry): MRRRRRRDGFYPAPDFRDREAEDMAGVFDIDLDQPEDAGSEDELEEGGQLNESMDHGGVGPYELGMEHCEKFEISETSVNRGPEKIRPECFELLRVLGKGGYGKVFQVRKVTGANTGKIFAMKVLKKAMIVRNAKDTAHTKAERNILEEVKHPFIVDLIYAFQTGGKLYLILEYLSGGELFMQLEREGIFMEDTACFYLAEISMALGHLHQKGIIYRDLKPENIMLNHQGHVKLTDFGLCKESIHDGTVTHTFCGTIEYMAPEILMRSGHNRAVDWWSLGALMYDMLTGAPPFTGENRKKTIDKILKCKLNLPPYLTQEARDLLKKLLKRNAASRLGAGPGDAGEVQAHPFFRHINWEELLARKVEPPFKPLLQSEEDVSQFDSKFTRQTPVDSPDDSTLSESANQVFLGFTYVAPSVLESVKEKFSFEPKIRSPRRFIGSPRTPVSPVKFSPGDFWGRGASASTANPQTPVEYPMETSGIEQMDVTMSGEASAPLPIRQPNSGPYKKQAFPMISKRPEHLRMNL
# T3 sequence (Q8N4C8 whole entry): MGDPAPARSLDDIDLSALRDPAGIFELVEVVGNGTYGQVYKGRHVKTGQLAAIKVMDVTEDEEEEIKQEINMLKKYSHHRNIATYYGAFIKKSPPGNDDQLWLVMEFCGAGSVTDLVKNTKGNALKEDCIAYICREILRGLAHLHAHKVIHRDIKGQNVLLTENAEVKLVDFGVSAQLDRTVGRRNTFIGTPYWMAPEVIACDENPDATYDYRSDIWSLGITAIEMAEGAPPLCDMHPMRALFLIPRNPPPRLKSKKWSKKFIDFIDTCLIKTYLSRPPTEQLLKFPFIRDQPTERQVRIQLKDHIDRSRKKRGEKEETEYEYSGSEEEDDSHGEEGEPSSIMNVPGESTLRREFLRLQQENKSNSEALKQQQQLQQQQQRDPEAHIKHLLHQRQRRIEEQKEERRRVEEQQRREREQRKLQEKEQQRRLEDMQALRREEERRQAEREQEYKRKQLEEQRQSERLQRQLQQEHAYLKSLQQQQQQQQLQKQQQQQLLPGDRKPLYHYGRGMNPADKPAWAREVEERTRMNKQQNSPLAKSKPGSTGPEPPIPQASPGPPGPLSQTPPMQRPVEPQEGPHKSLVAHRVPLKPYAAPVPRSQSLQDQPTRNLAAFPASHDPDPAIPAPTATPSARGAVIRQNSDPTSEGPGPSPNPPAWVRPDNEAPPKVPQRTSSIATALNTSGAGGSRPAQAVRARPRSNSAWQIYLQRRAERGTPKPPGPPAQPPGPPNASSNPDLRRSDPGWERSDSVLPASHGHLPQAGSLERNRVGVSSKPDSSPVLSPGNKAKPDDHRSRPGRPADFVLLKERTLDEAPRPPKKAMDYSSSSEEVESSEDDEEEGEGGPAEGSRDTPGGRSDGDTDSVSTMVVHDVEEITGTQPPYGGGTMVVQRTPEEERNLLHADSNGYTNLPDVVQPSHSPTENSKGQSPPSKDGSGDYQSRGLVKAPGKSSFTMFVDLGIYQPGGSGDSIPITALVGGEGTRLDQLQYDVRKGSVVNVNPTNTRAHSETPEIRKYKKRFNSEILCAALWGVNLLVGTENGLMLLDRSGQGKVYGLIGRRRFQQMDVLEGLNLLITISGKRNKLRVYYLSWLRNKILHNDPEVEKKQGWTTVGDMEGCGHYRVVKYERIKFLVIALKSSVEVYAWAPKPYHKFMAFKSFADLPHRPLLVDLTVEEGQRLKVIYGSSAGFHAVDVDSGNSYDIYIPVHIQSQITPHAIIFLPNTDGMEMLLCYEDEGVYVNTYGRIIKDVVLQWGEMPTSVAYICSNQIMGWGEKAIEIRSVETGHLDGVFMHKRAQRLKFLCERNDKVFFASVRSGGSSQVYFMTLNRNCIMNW
Structure (SMILES),remaining activity at 5 µM [1] [%],remaining activity at 5 µM [2] [%],remaining activity at 5 µM [3] [%],remaining activity at 5 µM [4] [%],remaining activity at 5 µM [5] [%],remaining activity at 5 µM [6] [%],remaining activity at 5 µM [7] [%],remaining activity at 10 µM ([1]; 10 uM) [%],remaining activity at 10 µM ([2]; 10 uM) [%],remaining activity at 10 µM ([3]; 10 uM) [%],remaining activity at 10 µM ([4]; 10 uM) [%],remaining activity at 10 µM ([5]; 10 uM) [%],remaining activity at 10 µM ([6]; 10 uM) [%],remaining activity at 10 µM ([7]; 10 uM) [%]
"O=C(Nc1cnn(-c2csc(C(=O)NC3COC3)c2)c1)Nc1c(F)cccc1Cl [Compound 25, 4-(4-(3-(2-chloro-6-fluorophenyl)ureido)-1H-pyrazol-1-yl)-N-(oxetan-3-yl)thiophene-2-carboxamide]",68.4,91.5,62.2,83.1,131,97.7,101,–,–,–,–,–,–,–
"O=C(Nc1cnn(-c2csc(C(=O)NC3COC3)c2)c1)Nc1ccccc1Cl [Compound 17, 4-(4-(3-(2-chlorophenyl)ureido)-1H-pyrazol-1-yl)-N-(oxetan-3-yl)thiophene-2-carboxamide]",75.4,104,79.4,105,101,92.1,112,–,–,–,–,–,–,–
"Cc1sc(C(=O)NC2COC2)cc1-n1cc(NC(=O)Nc2c(F)cccc2Cl)cn1 [Compound 27, 4-(4-(3-(2-chloro-6-fluorophenyl)ureido)-1H-pyrazol-1-yl)-5-methyl-N-(oxetan-3-yl)thiophene-2-carboxamide]",–,–,–,–,–,–,–,98.8,87.5,102,88.4,88.5,92.1,98
